Data as given in US10448639B2, “Fungicidal pyrazoles” (FMC CORPORATION, priority 2009, dated 2019).

Tests used:
[1] = test system: Puccinia recondita f. sp. tritici; test: Test I: wheat leaf rust, preventive spray on wheat seedlings, visual disease rating; settings: for Test I rating (% disease control): wheat leaf rust, 100 = 100% disease control
Botrytis cinerea = test: Test B: tomato Botrytis, preventive spray on tomato seedlings, visual disease rating; settings: for Test B rating (% disease control): tomato Botrytis, 100 = 100% disease control
Septoria tritici = test: Test G: wheat leaf blotch, preventive spray on wheat seedlings, visual disease rating; settings: for Test G rating (% disease control): wheat leaf blotch, 100 = 100% disease control
Alternaria solani = test: Test C: tomato early blight, preventive spray on tomato seedlings, visual disease rating; settings: for Test C rating (% disease control): tomato early blight, 100 = 100% disease control
[2] = test system: Erysiphe graminis f sp. tritici; test: Test J: wheat powdery mildew, preventive spray on wheat seedlings, visual disease rating; settings: for Test J rating (% disease control): wheat powdery mildew, 100 = 100% disease control
From the text: General protocol for preparing test suspensions for Tests A-J: the test compounds were first dissolved in acetone in an amount equal to 3% of the final volume and then suspended at the desired concentration (in ppm) in acetone and purified water (50/50 mix by volume) containing 250 ppm of the surfactant Trem® 014 (polyhydric alcohol esters). The resulting test suspensions were then used in Tests A-J. Spraying a 200 ppm test suspension to the point of run-off on the test plants was the equivalent of a rate of 500 g/ha. Unless otherwise indicated, the rating values indicate a 200 ppm test suspension was used. (An asterisk “*” next to the rating value indicates a 40 ppm test suspension was used.)
The test suspension was sprayed to the point of run-off on wheat seedlings. The following day the seedlings were inoculated with a spore dust of Erysiphe graminis f sp. tritici, (the causal agent of wheat powdery mildew) and incubated in a growth chamber at 20° C. for 8 days, after which time visual disease ratings were made.

Septoria nodorum = test: Test F: Septoria glume blotch, preventive spray on wheat seedlings, visual disease rating; settings: for Test F rating (% disease control): 100 = 100% disease control
[3] = test system: Puccinia recondita f. sp. tritici; test: Test H: wheat leaf rust, curative spray on inoculated wheat seedlings, visual disease rating; settings: for Test H rating (% disease control): wheat leaf rust, 100 = 100% disease control
[4] = preventive, 0 = no control relative to controls
[5] = 0 = no control relative to controls
[6] = Septoria glume blotch, 0 = no control relative to controls
[7] = curative, 0 = no control relative to controls
[8] = preventive spray, 0 = no control
[9] = Septoria glume blotch on wheat, preventive spray, 0 = no control

Compound	Test I rating (% disease control) [1, 4]	Test B rating (% disease control) (Botrytis cinerea; [5])	Test G rating (% disease control) (Septoria tritici; [5])	Test C rating (% disease control) (Alternaria solani; [5])	Test J rating (% disease control) [2, 5]	Test F rating (% disease control) (Septoria nodorum; [6])	Test H rating (% disease control) [3, 7]	Test I rating (% disease control) [1, 8]	Test B rating (% disease control) (Botrytis cinerea; [8])	Test G rating (% disease control) (Septoria tritici; [8])	Test C rating (% disease control) (Alternaria solani; [8])	Test J rating (% disease control) [2, 8]	Test F rating (% disease control) (Septoria nodorum; [9])	Test H rating (% disease control) ([3]; curative spray, 0 = no control)	further results
COc1ccc(Nc2c(-c3ccc(F)cc3F)c(C)nn2C)c(Cl)c1 [compound 242]	91%	99%	100%	37%	100%	0%	0%	–	–	–	–	–	–	–	–
COc1ccc(Nc2c(-c3c(F)cc(C#N)cc3F)c(C)nn2C)cc1F [compound 113]	–	–	–	–	–	–	–	95%	99%	100%	47%	48%	0%	8%	–
COc1cc(F)c(-c2c(C)nn(C)c2Oc2ccc(Cl)c(C#N)c2)c(F)c1 [compound 218]	92%	94%	99%	0%	87%	0%	17%	–	–	–	–	–	–	–	–
Cc1nn(C)c(Oc2ccc(Cl)cc2)c1-c1c(F)cc(F)cc1F [compound 27]	–	–	–	–	–	–	–	25%	99%	95%	88%	87%	0%	0%	–
Cc1nn(C)c(Oc2c(F)cc(C#N)cc2F)c1-c1ccc(F)cc1F [compound 170]	100%	100%	98%	99%	99%	99%	0%	–	–	–	–	–	–	–	–
Cc1nn(C)c(Oc2c(F)cc(C#N)cc2F)c1-c1cccc(F)c1F [compound 274]	0%	8%	96%	0%	69%	0%	8%	–	–	–	–	–	–	–	–
Cc1nn(C)c(Nc2ccc(Cl)cc2Cl)c1-c1ccc(F)cc1F [compound 243]	97%	100%	100%	64%	100%	0%	0%	–	–	–	–	–	–	–	–
Cc1nn(C)c(Nc2c(F)cc(F)cc2Cl)c1-c1ccc(F)cc1Br [Compound 292, 4-(2-bromo-4-fluorophenyl)-N-(2-chloro-4,6-difluorophenyl)-1,3-dimethyl-1H-pyrazol-5-amine]	–	–	–	–	–	–	–	–	–	–	–	–	–	–	pest or weed control at 200 µg/mL ([1]; 192 h, read-out: Test I rating (% disease control)): 100%; pest or weed control at 200 µg/mL (Botrytis cinerea; Botrytis cinerea, in Solanum lycopersicum, 120 h, read-out: Test B rating (% disease control)): 100%; pest or weed control at 200 µg/mL (Septoria tritici; Zymoseptoria tritici, in Triticum aestivum, 504 h, read-out: Test G rating (% disease control)): 100%; pest or weed control at 200 µg/mL (Alternaria solani; Alternaria solani, in Solanum lycopersicum, 168 h, read-out: Test C rating (% disease control)): 99%; pest or weed control at 200 µg/mL ([2]; Blumeria graminis, in Triticum aestivum, 192 h, read-out: Test J rating (% disease control)): 100%; pest or weed control at 200 µg/mL (Septoria nodorum; Parastagonospora nodorum, in Triticum aestivum, 192 h, read-out: Test F rating (% disease control)): 96%; pest or weed control at 200 µg/mL ([3]; 144 h, read-out: Test H rating (% disease control)): 92%
COc1ccc(Nc2c(-c3ccc(Cl)cc3)c(C)nn2C)c(Cl)c1 [compound 60]	–	–	–	–	–	–	–	79%	75%	97%	0%	0%	0%	59%	–
COc1cc(F)c(-c2c(C)nn(C)c2Oc2c(F)cccc2F)c(F)c1 [compound 84]	–	–	–	–	–	–	–	100%	100%	100%	100%	99%	78%	98%	–
Cc1nn(C)c(Oc2ccc([N+](=O)[O-])cc2Cl)c1-c1c(F)cc(F)cc1F [compound 32]	–	–	–	–	–	–	–	99%	99%	96%	0%	97%	0%	0%	–
Cc1nn(C)c(Nc2ccc(F)cc2)c1-c1ccc(F)cc1F [compound 194]	91%	97%	99%	86%	99%	0%	0%	–	–	–	–	–	–	–	–
Cc1nn(C)c(Nc2ccc(Cl)cc2)c1-c1ccc(F)cc1F [compound 195]	98%	100%	100%	97%	97%	60%	0%	–	–	–	–	–	–	–	–
COc1ccc(F)c(Nc2c(-c3ccc(F)cc3F)c(C)nn2C)c1 [compound 244]	0%	82%	91%	0%	96%	0%	0%	–	–	–	–	–	–	–	–
Cc1nn(C)c(Nc2c(F)cccc2F)c1-c1c(F)cccc1F [compound 247]	99%	100%	100%	99%	100%	60%	0%	–	–	–	–	–	–	–	–
Cc1nn(C)c(Nc2c(F)cc(F)cc2F)c1-c1ccccc1C(F)(F)F [compound 239]	68%	99%	67%	95%	100%	0%	0%	–	–	–	–	–	–	–	–
Cc1nn(C)c(Oc2cc(C#N)c(C#N)cc2Cl)c1-c1ccc(F)cc1Cl [compound 150]	74%	19%	7%	0%	50%	60%	0%	–	–	–	–	–	–	–	–
Cc1nn(C)c(Oc2ccc(F)cc2[N+](=O)[O-])c1-c1ccc(F)cc1Cl [compound 122]	–	–	–	–	–	–	–	0%	0%	0%	0%	0%	0%	11%	–
COc1ccc(Nc2c(-c3ccc(Cl)cc3Cl)c(C)nn2C)c(OC)c1 [compound 57]	–	–	–	–	–	–	–	85%	98%	94%	0%	0%	0%	85%	–
Cc1cc(F)ccc1-c1c(C)nn(C)c1Oc1c(F)cc(C#N)cc1F [compound 97]	–	–	–	–	–	–	–	99%	100%	100%	99%	99%	95%	0%	–
Cc1nn(C)c(Nc2ncc(Cl)cc2Cl)c1-c1ccccc1C(F)(F)F [compound 251]	86%	99%	98%	0%	100%	0%	0%	–	–	–	–	–	–	–	–
Cc1nn(C)c(Nc2ncc(F)cc2F)c1-c1c(F)cc(F)cc1F [compound 109]	–	–	–	–	–	–	–	100%	100%	100%	99%	100%	97%	99%	–
COc1ccc(Nc2c(-c3c(F)cc(F)cc3F)c(C)nn2C)cc1OC [compound 93]	–	–	–	–	–	–	–	9%	41%	77%	0%	0%	0%	0%	–
